The record followed here is US9765075B2, “Substituted bridged urea analogs as sirtuin modulators” (GLAXOSMITHKLINE LLC, priority 2013, dated 2017).

This test has as its target T1, SIRT1 (Homo sapiens, UniProt Q96EB6).
T1 sequence (Q96EB6 1-747): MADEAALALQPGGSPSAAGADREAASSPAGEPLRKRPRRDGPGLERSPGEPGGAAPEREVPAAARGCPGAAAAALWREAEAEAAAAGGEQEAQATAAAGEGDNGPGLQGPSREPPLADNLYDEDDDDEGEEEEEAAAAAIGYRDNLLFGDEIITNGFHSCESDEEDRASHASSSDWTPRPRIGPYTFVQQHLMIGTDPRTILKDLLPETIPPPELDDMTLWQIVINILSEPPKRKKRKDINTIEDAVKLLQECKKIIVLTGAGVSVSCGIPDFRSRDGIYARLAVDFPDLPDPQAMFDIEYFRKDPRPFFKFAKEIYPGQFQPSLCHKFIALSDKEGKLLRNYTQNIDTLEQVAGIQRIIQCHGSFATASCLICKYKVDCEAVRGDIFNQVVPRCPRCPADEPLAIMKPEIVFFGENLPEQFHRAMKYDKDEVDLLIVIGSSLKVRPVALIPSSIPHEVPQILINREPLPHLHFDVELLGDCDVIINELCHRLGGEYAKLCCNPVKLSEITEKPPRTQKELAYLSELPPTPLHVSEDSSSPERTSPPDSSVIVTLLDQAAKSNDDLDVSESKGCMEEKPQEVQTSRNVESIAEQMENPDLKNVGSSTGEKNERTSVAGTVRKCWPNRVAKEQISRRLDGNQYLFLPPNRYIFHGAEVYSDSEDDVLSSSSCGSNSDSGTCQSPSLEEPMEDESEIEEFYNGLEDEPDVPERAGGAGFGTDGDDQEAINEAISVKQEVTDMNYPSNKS
Kind of test: Trp mass spectrometry assay (SIRT1 activation). As to conditions: Trp peptide substrate; for Tryp AVG EC1.5 (μM): concentration of test compound that results in 150% activation of SIRT1; for Emax: percent maximum fold activation of SIRT1, read-out: Tryp % Fold Act. It is filed as biochemical. The method, boiled down:
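N-His-tagged SIRT1 (10 nM), expressed in E. coli, was incubated with 0.5 μM Ac-RHKK(Ac)W-NH2 peptide and 120 μM NAD+ for 25 min at 25 °C in HEPES pH 7.5 with […]. The reaction was stopped with formic acid and O-acetyl-ADP-ribose or deacetylated peptide was quantified by mass spectrometry. Results are given as EC1.5 and percent maximal activation relative to DMSO control.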

As for `COc1cnc(NC(=O)N2c3nc(-c4ccnc(C)c4)ccc3N3CC[C@H]2C3)cn1` [Example 500], the “Tryp AVG EC1.5 (μM)” value was “A (EC1.5<1 μM)” and the Emax is at least 150%.
For the molecule `COc1nccnc1NC(=O)N1c2nc(-c3ccnc(C)c3)ccc2N2CC[C@H]1C2` [Example 501], the “Tryp AVG EC1.5 (μM)” value is on record as “B (EC1.5 1-25 μM)” and the Emax was at least 150%.
For `Cc1cc(-c2ccc3c(n2)N(C(=O)Nc2ccc4c(cnn4C)c2)[C@H]2CCN3C2)ccn1` [Example 502], the “Tryp AVG EC1.5 (μM)” value is on record as “A (EC1.5<1 μM)” and the Emax was at least 150%.
On to `Cc1cc(-c2ccc3c(n2)N(C(=O)Nc2cncc(C)n2)[C@H]2CCN3C2)ccn1` [Example 503], for which the “Tryp AVG EC1.5 (μM)” value is given as “A (EC1.5<1 μM)” and the Emax was at least 150%.
`Cc1cncc(-c2ccc3c(n2)N(C(=O)Nc2ccccn2)[C@H]2CCCN3C2)c1` [Example 504]: the “Tryp AVG EC1.5 (μM)” value is on record as “A (EC1.5<1 μM)” and the Emax was at least 150%.
Consider `Cc1ccncc1-c1ccc2c(n1)N(C(=O)Nc1ccccn1)[C@H]1CCCN2C1` [Example 505], for which the “Tryp AVG EC1.5 (μM)” value is recorded as “C (EC1.5>25 μM)” and the Emax was under 150%.
As to `Cc1ccc(-c2ccc3c(n2)N(C(=O)Nc2nc(C)c(C)s2)[C@H]2CCCN3C2)cn1` [Example 506], the “Tryp AVG EC1.5 (μM)” value was “A (EC1.5<1 μM)” and the Emax is at least 150%.
In the case of `Cc1cncc(-c2ccc3c(n2)N(C(=O)Nc2nc(C)c(C)s2)[C@H]2CCCN3C2)c1` [Example 507], the “Tryp AVG EC1.5 (μM)” value was “A (EC1.5<1 μM)” and the Emax was at least 150%.
Consider `Cc1ccncc1-c1ccc2c(n1)N(C(=O)Nc1nc(C)c(C)s1)[C@H]1CCCN2C1` [Example 508], for which the “Tryp AVG EC1.5 (μM)” value was “C (EC1.5>25 μM)” and the Emax was at least 150%.
Turning to `Cc1cncc(-c2ccc3c(n2)N(C(=O)Nc2cncc(F)c2)[C@H]2CCCN3C2)c1` [Example 509], the “Tryp AVG EC1.5 (μM)” value was “A (EC1.5<1 μM)” and the Emax was at least 150%.
In the same order, the values of `Cc1ccncc1-c1ccc2c(n1)N(C(=O)Nc1cncc(F)c1)[C@H]1CCCN2C1` [Example 510] are “B (EC1.5 1-25 μM)” and at least 150%.
As to `COc1cc(NC(=O)N2c3nc(-c4cnccc4C)ccc3N3CCC[C@H]2C3)ncn1` [Example 511], the “Tryp AVG EC1.5 (μM)” value is “C (EC1.5>25 μM)” and the Emax was under 150%.
Take `Cc1cncc(-c2ccc3c(n2)N(C(=O)Nc2cnccn2)[C@H]2CCCN3C2)c1` [Example 512]: the “Tryp AVG EC1.5 (μM)” value was “B (EC1.5 1-25 μM)” and the Emax was at least 150%.
Take `Cc1ccncc1-c1ccc2c(n1)N(C(=O)Nc1cnccn1)[C@H]1CCCN2C1` [Example 513]: the “Tryp AVG EC1.5 (μM)” value was “C (EC1.5>25 μM)” and the Emax is at least 150%.
With `Cc1ccc(-c2ccc3c(n2)N(C(=O)Nc2cccnc2)[C@H]2CCCN3C2)cn1` [Example 514], the “Tryp AVG EC1.5 (μM)” value was “B (EC1.5 1-25 μM)” and the Emax is at least 150%.
For `Cc1cncc(-c2ccc3c(n2)N(C(=O)Nc2cccnc2)[C@H]2CCCN3C2)c1` [Example 515], the “Tryp AVG EC1.5 (μM)” value is “A (EC1.5<1 μM)” and the Emax was at least 150%.
Take `Cc1ccncc1-c1ccc2c(n1)N(C(=O)Nc1cccnc1)[C@H]1CCCN2C1` [Example 516]: the “Tryp AVG EC1.5 (μM)” value is on record as “B (EC1.5 1-25 μM)” and the Emax was at least 150%.
The matching figures for `Cc1cncc(-c2ccc3c(n2)N(C(=O)Nc2ccncn2)[C@H]2CCCN3C2)c1` [Example 517]: “A (EC1.5<1 μM)” and at least 150%.
Regarding `Cc1ccncc1-c1ccc2c(n1)N(C(=O)Nc1ccncn1)[C@H]1CCCN2C1` [Example 518], the “Tryp AVG EC1.5 (μM)” value is recorded as “C (EC1.5>25 μM)” and the Emax was under 150%.
The matching figures for `Cc1cncc(-c2ccc3c(n2)N(C(=O)Nc2cccnn2)[C@H]2CCCN3C2)c1` [Example 519]: “A (EC1.5<1 μM)” and at least 150%.
On to `Cc1ccncc1-c1ccc2c(n1)N(C(=O)Nc1cccnn1)[C@H]1CCCN2C1` [Example 520], for which the “Tryp AVG EC1.5 (μM)” value is reported as “C (EC1.5>25 μM)” and the Emax is at least 150%.
